# Reference: patent US9962383B2, “Compounds, compositions and methods of agelastatin alkaloids” (Massachusetts Institute of Technology, priority 2013, dated 2018)
# “Also recorded” adds a separate entry of the source. Where two headings read alike, the source gives them in different places.
# Assays:
# U-937 = test: 48-hour IC50 by MTS, U-937 lymphoma cells; assay type: cell-based, human
# Procedure: (§1) Cells were grown in media supplemented with fetal bovine serum (FBS) and antibiotics (100 μg/mL penicillin and 100 U/mL streptomycin). […] Cells were incubated at 37° C. in a 5% CO2, 95% humidity atmosphere.
# (§2) In a 96-well plate, compounds were pre-added as DMSO stocks (1% final) in triplicate to achieve final concentrations of 1 nM to 10 μM on a half log scale. DMSO and cell-free wells served as the live and dead control, respectively. […] IC50 values were determined from three or more independent experiments using TableCurve (San Jose, Calif.).
# BT549 = test: 48-hour IC50 by SRB, BT549 breast carcinoma cells; assay type: cell-based, human
# Procedure: as §1
# (§3) Adherent cells (HeLa, A549, BT549, and IMR90) were added into 96-well plates (5,000 cells/well for HeLa cell line; 2,000 cells/well for A549, BT549, and IMR90 cell lines) in 100 μL media and were allowed to adhere for 2-3 hours. Compounds were solubilized in DMSO as 100× stocks, added directly to the cells (100 μL final volume), and tested over a range of concentrations (1 nM to 10 μM) in triplicate (1% DMSO final) on a half-log scale. DMSO and cell-free wells served as the live and dead control, respectively. […] Briefly, media was removed from the plate, and cells were fixed by the addition of 100 μL cold 10% trichloroacetic acid in water. After incubating at 4° C. for 1 h, the plates were washed in water and allowed to dry. Sulforhordamine B was added as a 0.057% solution in 1% acetic acid (100 μL), and the plates were incubated at room temperature for 30 min, washed in 1% acetic acid, and allowed to dry. […] IC50 values were determined from three or more independent experiments using TableCurve (San Jose, Calif.).
# IMR90 = test: 48-hour IC50 by SRB, IMR90  lung fibroblasts; assay type: cell-based, human
# Procedure: as §1, §3
# [1] = system: human cell lines (U-937, HeLa, A549, BT549, IMR90); test: Ability to induce cell death in the panel of five human cell lines (Table 3); assay type: cell-based; conditions: for activity (ability to induce cell death) in words: 48-hour exposure, 1 nM to 10 μM, cell lines of Table 3; for reduction in anticancer potency relative to the compared agelastatin: (−)-2 vs (−)-1, (−)-6 vs (−)-4, D (4) and E (5) vs A (1), Table 3 data
# Procedure: Six (−)-agelastatins along with eight closely related derivatives prepared in the above examples were tested (Table 3). The six (−)-agelastatin alkaloids (1-6, respectively), (−)-O-methyl-di-epi-agelastatin A (50), (−)-dehydroagelastatin A (51), (−)-di-epi-agelastatin C (52), (+)-O-methyl-pre-agelastatin A and D (39 and 53, respectively), along with bicyclic pyrroles (+)-44, (+)-45, and triazone (+)-48 were tested for their ability to induce cell death in four human cancer cell lines (U-937, lymphoma; HeLa, cervical carcinoma; A549, non-small cell lung carcinoma; and BT549, breast carcinoma) and one immortalized normal human cell line (IMR90, lung fibroblasts) after a 48-hour exposure. […] Furthermore, enhanced activities in U-937 (20×) cell relative to the other cell lines (Table 3) were observed.
# Adherent cells (HeLa, A549, BT549, and IMR90) were added into 96-well plates (5,000 cells/well for HeLa cell line; 2,000 cells/well for A549, BT549, and IMR90 cell lines) in 100 μL media and were allowed to adhere for 2-3 hours. Compounds were solubilized in DMSO as 100× stocks, added directly to the cells (100 μL final volume), and tested over a range of concentrations (1 nM to 10 μM) in triplicate (1% DMSO final) on a half-log scale. DMSO and cell-free wells served as the live and dead control, respectively. After 48 h of continuous exposure, the plates were evaluated using the SRB colorimetric assay as described previously (V. Vichai, K. Kirtikara, Nature Prot., 2006, 1, 1112). Briefly, media was removed from the plate, and cells were fixed by the addition of 100 μL cold 10% trichloroacetic acid in water. After incubating at 4° C. for 1 h, the plates were washed in water and allowed to dry. Sulforhordamine B was added as a 0.057% solution in 1% acetic acid (100 μL), and the plates were incubated at room temperature for 30 min, washed in 1% acetic acid, and allowed to dry. The dye was solubilized by adding 10 mM Tris base solution (pH 10.5, 200 μL) and incubating at room temperature for 30 min Plates were read at λ=510 nm. IC50 values were determined from three or more independent experiments using TableCurve (San Jose, Calif.).
# In a 96-well plate, compounds were pre-added as DMSO stocks (1% final) in triplicate to achieve final concentrations of 1 nM to 10 μM on a half log scale. DMSO and cell-free wells served as the live and dead control, respectively. Suspension cells (U-937, CEM, CA46, Daudi, HL-60, and Jurkat; 10,000 cells/well) cells were distributed in 100 μL media to the compound-containing plate. After 48 h, cell viability was assessed by adding 20 μL of a PMS/MTS solution (A. H. Cory, T. C. Owen, J. A. Barltrop, J. G. Cory, Cancer Commun., 1991, 3, 207) to each well, allowing the dye to develop at 37° C. until the live control had processed MTS, and reading the absorbance at λ=490 nm. IC50 values were determined from three or more independent experiments using TableCurve (San Jose, Calif.).
# A549 = test: 48-hour IC50 by SRB, A549 non-small cell lung carcinoma cells; assay type: cell-based, human
# Procedure: as §1, §3
# HeLa = test: 48-hour IC50 by SRB, HeLa cervical carcinoma cells; assay type: cell-based, human
# Procedure: as §1, §3
# Jurkat = test: 48-hour IC50 by MTS, Jurkat acute T-cell leukemia cells; assay type: cell-based, human
# Procedure: as §1, §2
# CEM = test: 48-hour IC50 by MTS, CEM acute lymphoblastic leukemia cells; assay type: cell-based, human
# Procedure: as §1, §2
# HL-60 = test: 48-hour IC50 by MTS, HL-60 acute promyelocytic leukemia cells; assay type: cell-based, human
# Procedure: as §1, §2
# CA46 = test: 48-hour IC50 by MTS, CA46 Burkitt's lymphoma cells; assay type: cell-based, human
# Procedure: as §1, §2
# Daudi = test: 48-hour IC50 by MTS, Daudi Burkitt's lymphoma cells; assay type: cell-based, human
# Procedure: as §1, §2
# U-937 cells = test: Apoptosis in U-937 cells with Annexin V-FITC and propidium iodide; assay type: cell-based, human; conditions: 21 hours, flow cytometry
# Procedure: FIG. 3. […] Analysis of phosphatidylserine exposure and propidium iodide inclusion at 21 hours in U-937 cells. Compounds were tested at indicated concentrations and STS was used as a positive control for apoptosis. Samples were analyzed by flow cytometry for the relative timing of phosphatidylserine exposure relative to PI inclusion. FITC=fluorescein isothiocyanate; PI=propidium iodide; STS=staurosporine.
# DMSO stocks of compounds were added to a 24-well plate in singlicate (0.2% DMSO final). […] Following treatment, the cell suspensions were transferred to flow cytometry tubes and pelleted (500 g, 3 min). The media was removed by aspiration, and cells were resuspended in 200 μL AnnV binding buffer (10 mM HEPES, pH 7.4, 140 mM NaCl, 2.5 mM CaCl2) with 5 μg/mL PI and 1:90 dilution of AnnV. Samples were analyzed using flow cytometry.
# tubulin dynamics = test: Tubulin microscopy with HeLa cells; assay type: cell-based, human; conditions: 16 hours, confocal microscopy
# Procedure: HeLa cells were treated with compound for 16 hours, fixed, stained, and visualized using confocal microscopy.
# Round, 1.5 mm coverslips (No. 1.5) were sterilized with ultraviolet light and placed in a 12-well plate. HeLa cells (100,000 cells/well) were added and allowed to adhere for eight hours. Compounds were then added as DMSO stocks to achieve a final DMSO concentration of 1%, and the plates were returned to the incubator for 16 hours.
# Following incubation, the media was removed, and the coverslips were fixed with 0.5 mL Microtubulin Stabilizing Buffer (MTSB, 80 mM PIPES, pH 6.8, 1 mM MgCl2, 5 mM EGTA, 0.5% TX-100)+0.5% glutaraldehyde for 10 minutes at room temperature, after which the fixative was removed and the sample was quenched with the addition of 0.5 mL of freshly-prepared 1 mg/mL NaBH4 in PBS. After a 5 min incubation, the solution was removed by aspiration and the coverslips were washed with PBS.
# Coverslips were transferred to parafilm-lined culture dishes (cell-side up), and 40 μL of 50 μg/mL RNase A in Antibody Diluting Solution (AbDil, PBS, pH 7.4, 0.2% TX-100, 2% BSA, 0.1% NaN3) with 1:50 dilution of anti-α-tubulin-FITC antibody was added to all samples. The samples were allowed to incubate at room temperature in the dark for 2.5 hours, after which the coverslips were washed three times with PBS+0.1% TX-100. […]
# synchronized U-937 cells = test: Cell cycle arrest in thymidine-synchronized U-937 cells; assay type: cell-based, human; conditions: 16 hours, PI, flow cytometry
# Procedure: Samples were fixed, treated with an RNAse, stained with PI, and analyzed by flow cytometry. Taxol, a microtubule stabilizer, was used as a positive control. Error bars represent standard deviation of the mean, n=3. * p<0.01. PI=propidium iodide.
# U-937 cells were split to 50% confluency (250,000 cells/mL) and treated with 2 mM thymidine for 10 hours. The cells were then pelleted (500 g, 3 minutes) and washed with PBS before being resuspended in thymidine-free media and allowed to recover for 13 hours. The cells were then re-blocked with 2 mM thymidine for 10 hours, and then washed with PBS as before and resuspended in media (250,000 cells/mL).
# DMSO stocks of compounds were added to a 24-well plate in triplicate (0.2% DMSO final), after which 1 mL of the prepared cell suspension was added. Following a 16 h incubation, the cell suspensions were transferred to 2 mL tubes and pelleted (600 g, 3 min). The media was removed by aspiration, and the cells were fixed with 0.5 mL of ice cold 70% ethanol with vortexing. The samples were fully fixed at −20° C. for 3 hours. The samples were then pelleted (1000 g, 5 min) and the supernatant was removed via aspiration. […] Prior to reading, the samples were taken up in 150 μL of 50 μg/mL propidium iodide in PBS and transferred to flow cytometry tubes. Samples were analyzed based on whole, single cells.
# [2] = system: procaspase-3 and PARP-1 cleavage; test: Western blot analysis of procaspase-3 and PARP-1 cleavage in U-937 cells; assay type: cell-based, human; conditions: 24 hours
# Procedure: FIG. 2. […] Western blot analysis of procaspase-3 and PARP-1 cleavage at 24 hours in U-937 cells using β-actin as loading control. Compounds were tested at indicated concentrations and STS (10 nM); C3=caspase-3; PARP=poly(ADP-ribose) polymerase 1; PC3=procaspase-3; STS=staurosporine.
# [3] = IMR90 immortalized lung fibroblasts
Molecule,IC50 (U-937) [µM],IC50 (BT549) [µM],IC50 (IMR90; [3]) [µM],activity (ability to induce cell death) in words [1],IC50 (A549) [µM],IC50 (HeLa) [µM],IC50 (Jurkat) [nM],IC50 (CEM) [nM],IC50 (HL-60) [µM],IC50 (CA46) [nM],IC50 (Daudi) [nM],other results
"COC1NC(=O)c2ccc(Br)n2C1Cc1c[nH]c(=O)[nH]1 (single isomer, unassigned; (+)) [(+)-53, (+)-O-methyl-pre-agelastatin D]",> 10,> 10,> 10,None,> 10,> 10,–,–,–,–,–,–
(−)-O-methyl-di-epi-agelastatin A [(−)-50],> 10,> 10,> 10,None,> 10,> 10,–,–,–,–,–,–
(−)-di-epi-agelastatin C [(−)-52],> 10,> 10,> 10,None,> 10,> 10,–,–,–,–,–,–
"CN1C(=O)N[C@@]2(O)[C@@H]3NC(=O)c4ccc(Br)n4[C@@H]3C[C@@]12O [(−)-3, (−)-agelastatin C]",> 10,> 10,> 10,–,> 10,> 10,5310 ± 350,2100 ± 1300,> 10,> 10000,7200 ± 2900,activity (ability to induce cell death) in words ([1]; listed as (−)-agelastatin C (3)): little activity at the concentrations examined; also recorded: abolishes activity
"CO[C@H]1NC(=O)c2ccc(Br)n2[C@@H]1Cc1c[nH]c(=O)n1C [(+)-39, (+)-O-methyl-pre-agelastatin A]",–,–,–,None,–,–,–,–,–,–,–,"IC50 (U-937; Homo sapiens): > 10 µM; IC50 (BT549; Homo sapiens, BT-549): > 10 µM; IC50 (IMR90; Homo sapiens, IMR-90, IMR90 immortalized lung fibroblasts): > 10 µM; IC50 (A549; Homo sapiens): > 10 µM; IC50 (HeLa; Homo sapiens): > 10 µM"
(−)-agelastatin B [(−)-2],1.06 ± 0.16,4.8 ± 1.1,> 10,relatively weaker activity,> 10,4.8 ± 1.2,750 ± 440,290 ± 200,2.4 ± 1,1070 ± 420,460 ± 280,–
"CO[C@@]12C[C@@H]3[C@@H](NC(=O)c4ccc(Br)n43)[C@@H]1NC(=O)N2C [(−)-5, (−)-agelastatin E]",2.56 ± 0.13,6.9 ± 2.5,> 10,relatively weaker activity,> 10,8.6 ± 0.81,1500 ± 330,830 ± 370,4.6 ± 3.6,2450 ± 950,1410 ± 530,reduction in anticancer potency relative to the compared agelastatin [1]: > 10 fold
"O=C1N[C@H]2[C@@H]3NC(=O)c4ccc(Br)n4[C@@H]3C[C@@]2(O)N1 [(−)-4, (−)-agelastatin D]",0.24 ± 0.033,0.631 ± 0.082,2.75 ± 0.6,–,0.92 ± 0.16,1 ± 0.2,210 ± 63,74 ± 25,0.54 ± 0.12,460 ± 240,202 ± 15,apoptosis (phosphatidylserine exposure and propidium iodide inclusion) (U-937 cells): induced dose-dependent apoptosis; effect on tubulin dynamics (tubulin dynamics): do not affect tubulin dynamics; G2/M cell cycle arrest (synchronized U-937 cells): dose-dependent G2/M cell cycle arrest; activation of procaspase-3 to active caspase-3 and cleavage of PARP-1 [2]: dose-dependent activation; reduction in anticancer potency relative to the compared agelastatin [1]: 1-5 fold
"O=C1N[C@H]2[C@@H]3NC(=O)c4cc(Br)c(Br)n4[C@@H]3C[C@@]2(O)N1 [(−)-6, (−)-agelastatin F]",> 10,> 10,> 10,little activity at the concentrations examined,> 10,> 10,> 10000,> 10000,> 10,> 10000,> 10000,–
(−)-dehydroagelastatin A [(−)-51],> 10,> 10,> 10,None,> 10,> 10,–,–,–,–,–,–
